Like-named read-outs stand apart in the source and are kept apart here. Where no end group is shown, it is not given here.

In this experiment the test system is P. aeruginosa CDC 0515. Particulars: RPMI. As for the experimental part:
FIC test ranges were set based on broth microdilution MIC test data. FIC assay plates were prepared in accordance with CLSI guidelines for broth microdilution susceptibility testing; automated liquid handlers, and multi-channel pipettes were used to conduct serial dilutions and liquid transfers.
SEQ ID NO: 1 was tested at two concentration ranges depending on the test media. All organisms tested in CAMHB 0.002% P-80 were tested from 0.015-16 μg/mL; when tested in RPMI 0.002% P-80, the range tested was 0.004-4 μg/mL. For each SEQ ID NO: 1 mother, wells across the standard 96-well microdilution plate were filled with 150 μL of sterile saline 0.002% P-80 in columns 2 through 12. A 300 μL aliquot at 20× the highest final concentration of each dilution range to be tested, was added to each well in column 1 of the plate. The Biomek 3000 was used to make eleven 2-fold serial dilutions horizontally across each row of the plate columns 2 through 11.
The daughter plates were then completed using the Biomek FX to transfer 5 μL of drug solution from each well of the SEQ ID NO: 1 mother plates to the corresponding well in each daughter plate in a single step. […] The preparation of the daughter plates was performed for each media type; two times in total as all organisms were tested in both media types.
A standard inoculum for each organism was prepared per CLSI method. Colonies were picked up from the primary plate and a suspension was prepared equal to 0.5 McFarland turbidity standard. The suspensions were additionally diluted 1:10 in the appropriate broth. A 10 μL standardized inoculum was delivered into each well using the Biomek 3000 from low to high concentration. These inoculations yielded a final cell concentration in the daughter plates of approximately 5×10^5 CFU/mL in each well. […] Exemplary checkboard panels are seen in Table 5 and Table 6. Plates were incubated at 35° C. for 16-20 hr.
The MIC of the horizontal agent (row H) and the MIC of the vertical agent (column 12) were recorded and the wells of the growth-no growth interface for wells containing agents in combination at varying ratios were recorded by row. […] Pinpoint trailing was not interpreted as growth.
For each relevant row of the panel, the FICI was calculated as:
FICdrug A/MICdrug A+FICdrug B/MICdrug=FICI
Mean FICI values were determined for each combination tested by averaging the FICI values as observed on each row of the checkerboard assay (See Table 9, e.g., if there were FICI values for B-G, those FICI values were added together and divided by the number of rows the FICI values which in this case is 6 to get the mean FICI value for that combination).
Using the criteria described by: Odds FC. 2003. Synergy, antagonism, and what the chequerboard puts between them. J Antimicrob Chemother 52(1):1, the mean FICI for the combination was interpreted as follows: ≤0.5=synergy, >0.5-4=additive/indifferent, and >4=antagonism. […] An interpretation of indifference is consistent with growth inhibition at concentrations at or slightly below/above the MICs of the individual agents alone, resulting in a FICI value of >0.5 but […].

Turning to RRWVRRVRRVWRRVVRVVRRWVRR [SEQ ID NO: 1], the FICI (checkerboard row A, with Sodium Bicarbonate at 100) is given as 2.5; the FICI (checkerboard row B, with Sodium Bicarbonate at 50) was found to be 2.25; the FICI (checkerboard row C, with Sodium Bicarbonate at 25) came to 1.125.

The values above are taken from patent US20240252586A1, “ENGINEERED ANTIMICROBIAL PEPTIDES AND USAGE THEREOF” (priority 2021, published 2024).
